Measured values from patent publication US20070116702A1, “Survival promoting NCAM binding and MCAM ligand binding compounds” (priority 2001, published 2007).

Legend:
Hippocampal cells = test: Aggregate cell cultures of hippocampal cells (aggregates counted after 24 h); assay type: cell-based, rat; details: ligand present during the aggregation of cells; quantified 24 h after seeding
Experimental: A variety of suitable fragments and variants of NCAM has been discussed above. To be able to identify candidate ligands capable of stimulating NCAM function, where the NCAM function means the function of the NCAM molecule, the inventors have established a simple cell culture system (aggregate cell cultures) that permits a quantitative evaluation of the effect of various ligands. Hippocampal cells are provided from rat embryos. The cells are grown in a defined medium and dissociated cells are seeded in microtiter plates. After 24 h, the, amount of aggregates are counted. Compounds to be tested are added to the cell suspension immediately before seeding of the cells in micro-wells. When NCAM Ig1 binding ligands are present during the aggregation of cells, smaller, but more numerous cell aggregates are seen when quantified 24 h after seeding of the cells. The inhibiting effect of the ligands results in a blockage of the formation of large aggregates from many small aggregates as the adhesion, properties of NCAM are blocked. Thus, small but more numerous cell aggregates are seen in the presence of active ligands.

[1] = tested on: cells presenting NCAM or NCAM ligands; test: Prevention of cell death (survival) of cells presenting NCAM or NCAM ligands; assay type: cell-based; details: general statement; data only in figures
Experimental: PC12 cells were differentiated by plating them in 96-well tissue culture plates in defined medium (DMEM) supplemented with NGF (50-100 ng/ml) and were normally used after 6-8 days of NGF treatment. NGF withdrawal was performed as follows: the medium was removed, and the cells were quickly rinsed twice with pre-warmed medium, and then re-fed with DMEM supplemented with C3d. After 2 days of incubation cells were assayed for cell survival by measuring reduction of a novel tetrazolium compound, MTS (Promega, USA), which is bioreduced by cells into a formazan that is soluble in tissue culture medium. The absorbance of the formazan at 490 nm was measured directly from 96 well assay plates without additional processing. The conversion of MTS into the aqueous soluble formazan was accomplished by dehydrogenase enzymes found in metabolically active cells. The quantity of formazan product as measured by the amount of 490 nm absorbance was directly proportional to the number of living cells in culture (Yao and Cooper, 1995; CellTiter 96 Aqueous non-radioactive cell proliferation assay, Promega, 1996; Eilers et al., 1998).
PC12 cells were plated in 96-well tissue culture plates in the absence of growth factors (serum starvation) for 6 days in DMEM supplemented with C3d and assayed for cell survival by reduction of MTS, as described above (Gollapudi and Oblinger, 1999; Williams and Doherty, 1999). […]

cells presenting NCAM = details: by activating a signalling pathway identical to that activated by homophilic NCAM binding; cited from earlier work
NCAM Ig1 domain = target: T1, NCAM Ig1 domain (Rattus norvegicus, UniProt P13596); test: Real-time biomolecular interaction analysis (BIAlite surface plasmon resonance), Ig1 applied to immobilised dendrimer peptides; assay type: binding; details: dendrimer peptides immobilised on sensor chip CM5, 25° C., HBS; two independent experiments
T1 construct: The Ig1 domain of NCAM was produced as a recombinant protein in Pichia pastoris; made in house; host or cells: Pichia pastoris strain His 4 GS-115 (pHIL-S1 plasmid)
Excerpt: The Ig1 domain of NCAM was produced as a recombinant protein in Pichia pastoris. The cDNA fragment of rat NCAM was synthesised by PCR, and amplified cDNA was subcloned into an Xho I/Bam HI site of the pHIL-S1 plasmid (Invitrogen Corporation, San Diego, USA). An E. coli strain Top 10 F′ (Invitrogen Corporation, San Diego, USA) was used for transformation. The recombinant plasmid was linearised with Nsi I and used for transformation of Pichia pastoris strain His 4 GS-115 (Invitrogen Corporation, San Diego, USA). Transformation and selection was performed according to a Pichia Expression Kit manual supplied by the manufacturer. The recombinant protein was designated as Ig1 PP (Ig-like domain 1 produced in P. pastoris) The authenticity of Ig1 PP was secured by amino acid sequencing and MALDI-MS confirming the expected molecular weight of 11 kD. Cells were grown essentially according to the Pichia Expression Kit manual. After induction supernatant from growing cells was filtered through a […] filter, concentrated by ultrafiltration and purified by gel filtration using a Sephadex G-50 column (Pharmacia Biotech AB, Sweden) (Thomsen et al., 1996).
Real-time biomolecular interaction analysis was performed using a BIAlite instrument (Pharmacia Biosensor AB, Sweden). All experiments were performed at 25° C. using Hepes buffered saline (HBS: 10 mM Hepes pH 7.4, 150 mM NaCl, 3.4 mM EDTA, 0.005% v/v Surfactant P20 (Pharmacia Biosensor, Sweden) as running buffer. The flow rate was […]. Dendrimer peptides C3d, D3d and D4d (four peptide-monomers coupled to a backbone consisting of three lysines) were immobilised on a sensor chip CM5 (Pharmacia Biosensor AB, Sweden) using the following procedure: the chip was activated by […] 0.05 M N-hydroxysuccinimide, 0.2 M N-ethyl-N′-(dimethylaminopropyl)carbodiimide; peptides were immobilised using […] peptide solution in HBS at a concentration of 60 μg/ml; finally the chip was blocked by 35 μl 1 M ethanolamine hydrochloride pH 8.5. Binding of Ig1 to dendrimer peptides: […] of Ig1 or Ig1I at the indicated concentrations were applied. […]

T1 sequence (P13596 20-111 limits assumed): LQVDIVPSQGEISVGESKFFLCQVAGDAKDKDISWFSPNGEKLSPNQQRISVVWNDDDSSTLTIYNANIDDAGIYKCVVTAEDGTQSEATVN

Substance	inhibition of aggregation of hippocampal cells (Hippocampal cells)	preventing cell death [1]	stimulation of outgrowth (cells presenting NCAM)	binding to the NCAM Ig1 domain (NCAM Ig1 domain)
ASKKPKRNIKA (listed as Homo sapiens) [C3]	inhibited aggregation	capable of preventing cell death	stimulates outgrowth	
C3d: Dendrimer of C3: four peptide-monomers coupled to a backbone consisting of three lysines (ASKKPKRNIKA)				bind to the NCAM Ig1 domain
D3d: Dendrimer of D3: four peptide-monomers coupled to a backbone consisting of three lysines (AKKERQRKDTQ)				bind to the NCAM Ig1 domain
D4d: Dendrimer of D4: four peptide-monomers coupled to a backbone consisting of three lysines (ARALNWGAKPK)				bind to the NCAM Ig1 domain
